The source of these data is patent US20240043401A1, “SALT FORM OF TETRA-SUBSTITUTED OLEFIN COMPOUND, CRYSTAL, AND PREPARATION METHOD THEREFOR” (CHIA TAI TIANQING PHARMACEUTICAL GROUP CO., LTD., priority 2020, published 2024).

Data set [1] can be described thus: Solubility of crystalline forms (supersaturated suspension shaken at 37° C. for 24 h, HPLC-UV). In kind it is physicochemical. The conditions noted are these: thermodynamic from solid, 800 rpm. The method, then:
1-2 mg of a test sample was taken and placed in a semi-automatic filter vial, and 450 μL of purified water or FeSSIF simulated fluid (fed state simulated intestinal fluid) was added to give a supersaturated suspension. The sample was vortexed for at least 2 min. The vial was placed on a plate shaker and shaken at 37° C. at 800 rpm for 24 h. After centrifugal filtration, the sample was subjected to HPLC-UV linear quantitative analysis for concentration.
FeSSIF (fed state simulated intestinal fluid): an aqueous buffer solution comprising 0.282% (w/v) lecithin, 0.806% (w/v) sodium taurocholate, 0.865% (w/v) acetic acid, 1.52% (w/v) potassium chloride, with a pH of […]

The nature of data set [2]: Forced degradation experiment. Format: physicochemical. The method, then:
Control group: 20 mg of a sample was weighed out, a proper amount of diluent (acetonitrile:water=1:1, v/v) was added to dissolve the sample, and then the solution was brought to a volume of 100 mL with the diluent (acetonitrile:water=1:1, v/v). A proper amount of the solution was taken for analysis. Acidic degradation: 20 mg of the sample was weighed out, and 1 mL of a 1 M aqueous HCl solution was added. After sitting at room temperature for 24 h, the mixture was neutralized with 1 mL of a 1 M aqueous NaOH solution. The solution was brought to a volume of 100 mL with the diluent (acetonitrile:water=1:1, v/v). A proper amount of the solution was taken for analysis. Basic degradation: 20 mg of the sample was weighed out, and 1 mL of a 1 M aqueous NaOH solution was added. After sitting at room temperature for 24 h, the mixture was neutralized with 1 mL of a 1 M aqueous HCl solution. The solution was brought to a volume of 100 mL with the diluent (acetonitrile:water=1:1, v/v). A proper amount of the solution was taken for analysis. Oxidative degradation: 20 mg of the sample was weighed out, 1 mL of a 3% aqueous hydrogen peroxide solution was added, and the mixture was left at room temperature for 24 h. The solution was brought to a volume of 100 mL with the diluent (acetonitrile:water=1:1, v/v). A proper amount of the solution was taken for analysis.

The nature of data set [3]: Dynamic vapor sorption (DVS) hygroscopicity. Format: physicochemical. The conditions noted are these: from the DVS patterns, 25° C. The method, then: 1.4. Dynamic Vapor Sorption (DVS) Method of the Present Application
Instrument model: DVS Intrinsic instrument from SMS (Surface Measurement Systems) Inc.
Temperature: 25° C.; sample amount: 10-30 mg; protective gas and flow: N2, 200 mL/min; dm/dt: 0.002%/min; minimum dm/dt equilibration time: 10 min; maximum equilibration time: 180 min; RH range: 0% RH-95% RH-0% RH; RH gradient: 10% (90% RH-0% RH-90% RH), 5% (95% RH-90% RH and 90% RH-95% RH).

The nature of data set [4]: In vivo pharmacokinetic study after a single oral dose. To be noted: dog; female beagle dogs, single oral dose 100 mg/kg at 1 h after feeding, plasma, mean. The method, then:
This experiment was intended to evaluate the pharmacokinetic behavior of the compound after a single intragastric administration and to investigate bioavailability after intragastric administration. Two female beagle dogs were each given a single oral dose of the crystalline form I of the compound of formula (II) at 100 mg/kg at 1 h after feeding, and plasma samples were taken at 0.0833 (5 min), 0.25 (15 min), 0.5 (30 min), 1, 2, 4, 6, 8, 12, and 24 h after administration and assayed for the concentration of the test substance by LC-MS/MS.

In another data set the test system is breast cancer patients. The conditions noted are these: intramuscular injection; cited from earlier work.
For data set [5] the following is noted: oral administration; cited from earlier work.
[6] abbreviates: Vehicle: FeSSIF (fed state simulated intestinal fluid).

SMILES strings stand for the structures. Converted amounts (≈) assume the structure as drawn. Where only a bound is given, the exact number is not on record here.

As usually defined, the solubility is how much of the substance goes into solution per volume. A word on the AUC(0-t): it is exposure summed from dosing to a finite time, without extrapolation to infinity. In general, Cmax refers to the maximum level reached in the sampled fluid or tissue. In general, Tmax refers to the time at which the peak concentration occurs. Usually half-life stands for the time in which the quantity being followed falls by half.

For `CC/C(=C(/c1ccc(OCCNC/C=C/C(=O)N(C)C)nc1)c1[nH]c2ccccc2c1Cl)c1ccccc1.O=C(O)/C=C/C(=O)O`, the solubility at 24 h in data set [1] (setting [6]) was 1950 µg/mL.
For `CC/C(=C(/c1ccc(OCCNC/C=C/C(=O)N(C)C)nc1)c1[nH]c2ccccc2c1Cl)c1ccccc1.Cl` [listing 1 of 2 here], the Total impurities in data set [2] (Acidic degradation: 1 M aqueous HCl, room temperature, 24 h) is recorded as 0.56%; in data set [2] (Basic degradation: 1 M aqueous NaOH, room temperature, 24 h), 0.54%; in data set [2] (Not degraded (control group, dissolved in acetonitrile:water 1:1)), 0.60%; in data set [2] (Oxidative degradation: 3% aqueous hydrogen peroxide, room temperature, 24 h) it was 3.5%.
In data set [1] (setting [6]), `Br.CC/C(=C(/c1ccc(OCCNC/C=C/C(=O)N(C)C)nc1)c1[nH]c2ccccc2c1Cl)c1ccccc1` had a solubility at 24 h of 1370 µg/mL.
Consider `CC/C(=C(/c1ccc(OCCNC/C=C/C(=O)N(C)C)nc1)c1[nH]c2ccccc2c1Cl)c1ccccc1.Cl` [listing 2 of 2 here], for which the Hygroscopicity entry in data set [3] was “lower hygroscopicity than the amorphous form”. The Total impurities in data set [2] (Acidic degradation: 1 M aqueous HCl, room temperature, 24 h, listed as crystalline form I of the compound of formula (II)) was determined as 0.34%; in data set [2] (Basic degradation: 1 M aqueous NaOH, room temperature, 24 h, listed as crystalline form I of the compound of formula (II)), 0.35%; in data set [2] (Not degraded (control group, dissolved in acetonitrile:water 1:1), listed as crystalline form I of the compound of formula (II)), 0.34%; in data set [2] (Oxidative degradation: 3% aqueous hydrogen peroxide, room temperature, 24 h, listed as crystalline form I of the compound of formula (II)), 0.92%. The solubility at 24 h is 237 µg/mL in data set [1] (purified water, Vehicle: Water) and 1900 µg/mL in data set [1] (setting [6]). In data set [4], the AUC(0-t) came to 229 µM·h. Further, in data set [4], the highest level (Cmax) was 14 µM. For the same compound, the Tmax in data set [4] stood at 6 h. This compound also gave a half-life in data set [4] of 14.9 h.
For the compound `CC/C(=C(/c1ccc(OCCNC/C=C/C(=O)N(C)C)nc1)c1[nH]c2ccccc2c1Cl)c1ccccc1`, the solubility at 24 h in data set [1] (purified water, Vehicle: Water) was less than 0.8 µg/mL; in data set [1] (setting [6]), 316 µg/mL (≈ 597 µM).
On to `C[C@]12CC[C@@H]3c4ccc(O)cc4C[C@@H](CCCCCCCCC[S+]([O-])CCCC(F)(F)C(F)(F)F)[C@H]3[C@@H]1CC[C@@H]2O` (stereo partly drawn) [fulvestrant], for which the Clinical response rate entry in the data set with breast cancer patients was “about 50%”. Further, the Bioavailability entry in data set [5] was “zero”.
